Source: ChEMBL document CHEMBL5724914, “Linking interpersonal differences in gut microbiota composition and drug biotransformation activity” (2024)

How the values were obtained:
[1] = human gut metagenome, 24 h, 2 µM
[2] = human gut metagenome, 24 h, 2 µM; remark: listed apart in the source
[3] = human gut metagenome, 24 h, 2 µM; remark: listed apart in the source
[4] = The drug is tested on Z-019 corresponding to rat gut metagenome with ENA study accession number: PRJEB37062 and ENA sample accession number: ERS12561818 for biotransformation under anaerobic condition. The drug concentrations were measured over 9 timepoints collected between 0 and 24 hours of incubation by liquid-chromatography-coupled mass spectrometry (LC–MS); conditions: 2 µM
[5] = human gut metagenome, 24 h, 2 µM; remark: listed apart in the source
[6] = human gut metagenome, 24 h, 2 µM; remark: listed apart in the source
[7] = The drug is tested on Z-012 corresponding to metagenome with ENA study accession number: PRJEB37062 and ENA sample accession number: ERS12561812 for biotransformation under anaerobic condition. The drug concentrations were measured over 9 timepoints collected between 0 and 24 hours of incubation by liquid-chromatography-coupled mass spectrometry (LC–MS); conditions: 2 µM
[8] = human gut metagenome, 24 h, 2 µM; remark: listed apart in the source
[9] = The drug is tested on Z-006 corresponding to mouse gut metagenome with ENA study accession number: PRJEB37062 and ENA sample accession number: ERS12561806 for biotransformation under anaerobic condition. The drug concentrations were measured over 9 timepoints collected between 0 and 24 hours of incubation by liquid-chromatography-coupled mass spectrometry (LC–MS); conditions: 2 µM
[10] = The drug is tested on Z-021 corresponding to metagenome with ENA study accession number: PRJEB37062 and ENA sample accession number: ERS12561820 for biotransformation under anaerobic condition. The drug concentrations were measured over 9 timepoints collected between 0 and 24 hours of incubation by liquid-chromatography-coupled mass spectrometry (LC–MS); conditions: 2 µM
[11] = human gut metagenome, 24 h, 2 µM; remark: listed apart in the source
[12] = human gut metagenome, 24 h, 2 µM; remark: listed apart in the source
[13] = human gut metagenome, 24 h, 2 µM; remark: listed apart in the source
[14] = The drug is tested on Z-023 corresponding to metagenome with ENA study accession number: PRJEB37062 and ENA sample accession number: ERS12561822 for biotransformation under anaerobic condition. The drug concentrations were measured over 9 timepoints collected between 0 and 24 hours of incubation by liquid-chromatography-coupled mass spectrometry (LC–MS); conditions: 2 µM
[15] = The drug is tested on Z-020 corresponding to rabbit gut metagenome with ENA study accession number: PRJEB37062 and ENA sample accession number: ERS12561819 for biotransformation under anaerobic condition. The drug concentrations were measured over 9 timepoints collected between 0 and 24 hours of incubation by liquid-chromatography-coupled mass spectrometry (LC–MS); conditions: 2 µM
[16] = human gut metagenome, 24 h, 2 µM; remark: listed apart in the source
[17] = human gut metagenome, 24 h, 2 µM; remark: listed apart in the source
[18] = human gut metagenome, 24 h, 2 µM; remark: listed apart in the source
[19] = The drug is tested on Z-002 corresponding to rabbit gut metagenome with ENA study accession number: PRJEB37062 and ENA sample accession number: ERS12561802 for biotransformation under anaerobic condition. The drug concentrations were measured over 9 timepoints collected between 0 and 24 hours of incubation by liquid-chromatography-coupled mass spectrometry (LC–MS); conditions: 2 µM
[20] = The drug is tested on Z-005 corresponding to metagenome with ENA study accession number: PRJEB37062 and ENA sample accession number: ERS12561805 for biotransformation under anaerobic condition. The drug concentrations were measured over 9 timepoints collected between 0 and 24 hours of incubation by liquid-chromatography-coupled mass spectrometry (LC–MS); conditions: 2 µM
Note: call rule not given here.

| SMILES | Bacterial Biotransformation [1] | Bacterial Biotransformation [2] | Bacterial Biotransformation [3] | Bacterial Biotransformation [4] | Bacterial Biotransformation [5] | Bacterial Biotransformation [6] | Bacterial Biotransformation [7] | Bacterial Biotransformation [8] | Bacterial Biotransformation [9] | Bacterial Biotransformation [10] | Bacterial Biotransformation [11] | Bacterial Biotransformation [12] | Bacterial Biotransformation [13] | Bacterial Biotransformation [14] | Bacterial Biotransformation [15] | Bacterial Biotransformation [16] | Bacterial Biotransformation [17] | Bacterial Biotransformation [18] | Bacterial Biotransformation [19] | Bacterial Biotransformation [20] |
| --- | --- | --- | --- | --- | --- | --- | --- | --- | --- | --- | --- | --- | --- | --- | --- | --- | --- | --- | --- | --- |
| CC(CN(C)C)CN1c2ccccc2CCc2ccccc21.O=C(O)/C=C\C(=O)O (stereo not given) [TRIMIPRAMINE MALEATE] | Compound NOT metabolized | Compound metabolized | Compound NOT metabolized | Compound NOT metabolized | Compound metabolized | Compound NOT metabolized | Compound metabolized | Compound NOT metabolized | Compound NOT metabolized | Compound NOT metabolized | Compound metabolized | Compound metabolized | Compound metabolized | Compound metabolized | Compound NOT metabolized | Compound metabolized | Compound NOT metabolized | Compound metabolized | Compound NOT metabolized | Compound NOT metabolized |
| CC(=O)CC(c1ccccc1)c1c(O)c2ccccc2oc1=O (stereo not given) [WARFARIN] | Compound metabolized | Compound metabolized | Compound metabolized | Compound NOT metabolized | Compound metabolized | Compound metabolized | Compound metabolized | Compound metabolized | Compound metabolized | Compound NOT metabolized | Compound metabolized | Compound metabolized | Compound metabolized | Compound metabolized | Compound metabolized | Compound metabolized | Compound metabolized | Compound metabolized | Compound metabolized | Compound NOT metabolized |
| Cc1ccc(-c2nc3ccc(C)cn3c2CC(=O)N(C)C)cc1 [ZOLPIDEM] | Compound NOT metabolized | Compound NOT metabolized | Compound NOT metabolized | Compound NOT metabolized | Compound NOT metabolized | Compound NOT metabolized | Compound NOT metabolized | Compound NOT metabolized | Compound NOT metabolized | Compound NOT metabolized | Compound metabolized | Compound metabolized | Compound metabolized | Compound metabolized | Compound NOT metabolized | Compound metabolized | Compound NOT metabolized | Compound metabolized | Compound metabolized | Compound NOT metabolized |
